Experimental data taken from ChEMBL document CHEMBL1201862, “PubChem BioAssay data set” (2004).
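Values below derive from 48-hour exposures of cells grown in 96-well plates, with endpoints linearly interpolated between the two concentrations bracketing the appropriate inhibition level. At the GI50, growth is halved.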 Calls of active or inactive are those of the source. Cut-off read from the data, not from the text of the source: active = GI50 up to about 1.1 µM and inactive = higher.

Experiments:
Test in all cases: DTP human tumour cell line panel, 48 h
786-0 = test system: 786-0
DMS-114 = test system: DMS-114
NCI-H23 = test system: NCI-H23
HOP-62 = test system: HOP-62
U-251 = test system: U-251
M19-MEL = test system: M19-MEL
LOX IMVI = test system: LOX IMVI
Malme-3M = test system: Malme-3M
RPMI-8226 = test system: RPMI-8226
M14 = test system: M14
HCT-15 = test system: HCT-15
HL-60 = test system: HL-60
IGROV-1 = test system: IGROV-1
K562 = test system: K562
SK-MEL-5 = test system: SK-MEL-5
SF-268 = test system: SF-268
NCI-H460 = test system: NCI-H460
KM-20L2 = test system: KM-20L2
A549 = test system: A549
LXFL 529 = test system: LXFL 529
SN12C = test system: SN12C
HCC 2998 = test system: HCC 2998
SNB-19 = test system: SNB-19
SF-295 = test system: SF-295
SK-OV-3 = test system: SK-OV-3
UACC-257 = test system: UACC-257
XF498 = test system: XF498
NCI-H226 = test system: NCI-H226
UO-31 = test system: UO-31
DMS-273 = test system: DMS-273
SK-MEL-28 = test system: SK-MEL-28
OVCAR-3 = test system: OVCAR-3
KM12 = test system: KM12
CCRF-CEM = test system: CCRF-CEM
SF-539 = test system: SF-539
ACHN = test system: ACHN
MOLT-4 = test system: MOLT-4
COLO 205 = test system: COLO 205
HT-29 = test system: HT-29
EKVX = test system: EKVX
SR = test system: SR
HCT-116 = test system: HCT-116
UACC-62 = test system: UACC-62
SW-620 = test system: SW-620
NCI-H522 = test system: NCI-H522
OVCAR-8 = test system: OVCAR-8
SNB-78 = test system: SNB-78
A498 = test system: A498
CAKI-1 = test system: CAKI-1
OVCAR-5 = test system: OVCAR-5
OVCAR-4 = test system: OVCAR-4
TK-10 = test system: TK-10
SNB-75 = test system: SNB-75
RXF 393 = test system: RXF 393
SK-MEL-2 = test system: SK-MEL-2
Hs-578T = test system: Hs-578T
MDA-MB-435 = test system: MDA-MB-435
T47D = test system: T47D
MDA-MB-231 = test system: MDA-MB-231
BT-549 = test system: BT-549
MCF7 = test system: MCF7
MDA-N = test system: MDA-N
NCI/ADR-RES = test system: NCI/ADR-RES
DLD-1 = test system: DLD-1
PC-3 = test system: PC-3
DU-145 = test system: DU-145

Measured: GI50

COC(=O)C(CCC#N)(CCC#N)C(=O)OC
> 100 µM: HCT-15
inactive: 786-0 > 100 µM | DMS-114 > 100 µM | NCI-H23 > 100 µM | HOP-62 > 100 µM | U-251 > 100 µM | M19-MEL > 100 µM | LOX IMVI > 100 µM | Malme-3M > 100 µM | RPMI-8226 > 100 µM | M14 > 100 µM | HL-60 > 100 µM | IGROV-1 > 100 µM | K562 > 100 µM | SK-MEL-5 > 100 µM | SF-268 > 100 µM | NCI-H460 > 100 µM | KM-20L2 > 100 µM | A549 > 100 µM | LXFL 529 > 100 µM | SN12C > 100 µM | HCC 2998 > 100 µM | SNB-19 > 100 µM | SF-295 > 100 µM | SK-OV-3 > 100 µM | UACC-257 > 100 µM | XF498 > 100 µM | NCI-H226 > 100 µM | UO-31 > 100 µM | DMS-273 > 100 µM | SK-MEL-28 > 100 µM | OVCAR-3 > 100 µM | KM12 > 100 µM | CCRF-CEM > 100 µM | SF-539 > 100 µM | ACHN > 100 µM | MOLT-4 > 100 µM | COLO 205 > 100 µM | HT-29 > 100 µM | EKVX > 100 µM | SR > 100 µM | HCT-116 > 100 µM | UACC-62 > 100 µM | SW-620 > 100 µM | NCI-H522 > 100 µM | OVCAR-8 > 100 µM

FC(F)(F)c1cccc(/C=N/C23CC4CC(CC(C4)C2)C3)c1
inactive: 786-0 > 100 µM | DMS-114 > 100 µM | NCI-H23 > 100 µM | HOP-62 > 100 µM | U-251 > 100 µM | M19-MEL 27.5 µM | LOX IMVI > 100 µM | Malme-3M > 100 µM | SNB-78 > 100 µM | RPMI-8226 > 100 µM | A498 > 100 µM | M14 > 100 µM | CAKI-1 > 100 µM | HL-60 > 100 µM | IGROV-1 > 100 µM | K562 > 100 µM | SK-MEL-5 > 100 µM | SF-268 > 100 µM | NCI-H460 > 100 µM | KM-20L2 > 100 µM | A549 > 100 µM | OVCAR-5 > 100 µM | SN12C > 100 µM | HCC 2998 > 100 µM | OVCAR-4 > 100 µM | TK-10 > 100 µM | SNB-19 > 100 µM | SF-295 > 100 µM | SK-OV-3 > 100 µM | UACC-257 > 100 µM | XF498 > 100 µM | NCI-H226 > 100 µM | UO-31 > 100 µM | DMS-273 > 100 µM | SK-MEL-28 > 100 µM | OVCAR-3 > 100 µM | KM12 > 100 µM | SNB-75 51.9 µM | SF-539 > 100 µM | ACHN > 100 µM | MOLT-4 > 100 µM | COLO 205 > 100 µM | HT-29 > 100 µM | RXF 393 > 100 µM | EKVX > 100 µM | SR > 100 µM | HCT-116 > 100 µM | SW-620 > 100 µM | SK-MEL-2 > 100 µM | OVCAR-8 > 100 µM
> 100 µM: HCT-15

CC(=O)O[C@H]1C(=O)[C@@]2(C)C([C@H](OC(=O)c3ccccc3)[C@]3(O)C[C@H](OC(=O)[C@H](O)[C@@H](NC(=O)c4ccc(Cl)cc4)c4ccccc4)C(C)=C1C3(C)C)C1(OC(C)=O)CO[C@@H]1C[C@@H]2O (some centres undefined)
1.36 µM: HCT-15
active: 786-0 0.123 µM | Hs-578T 18.8 nM | MDA-MB-435 5.07 nM | DMS-114 < 0.01 µM | T47D 820 nM | MDA-MB-231 265 nM | NCI-H23 0.0738 µM | HOP-62 0.474 µM | U-251 0.092 µM | M19-MEL < 0.01 µM | LOX IMVI < 0.01 µM | Malme-3M 0.094 µM | RPMI-8226 < 0.01 µM | A498 0.322 µM | M14 0.0889 µM | BT-549 64.3 nM | HL-60 0.0025 µM | IGROV-1 0.0946 µM | SK-MEL-5 < 0.01 µM | SF-268 0.156 µM | NCI-H460 0.0668 µM | KM-20L2 < 0.01 µM | A549 0.168 µM | OVCAR-5 0.104 µM | LXFL 529 < 0.01 µM | SN12C 0.182 µM | HCC 2998 < 0.01 µM | TK-10 0.661 µM | MCF7 18.1 nM | MDA-N 6.65 nM | SNB-19 0.137 µM | SF-295 0.6 µM | SK-OV-3 0.0986 µM | UACC-257 0.109 µM | XF498 0.0303 µM | NCI-H226 0.173 µM | DLD-1 22.2 nM | SK-MEL-28 0.114 µM | PC-3 61.5 nM | OVCAR-3 0.0346 µM | KM12 0.0466 µM | CCRF-CEM < 0.01 µM | SNB-75 0.021 µM | SF-539 0.0689 µM | COLO 205 0.0607 µM | HT-29 0.03 µM | RXF 393 1.02 µM | DU-145 86.5 nM | HCT-116 0.0499 µM | UACC-62 0.0435 µM | SW-620 0.0569 µM | NCI-H522 0.0775 µM | SK-MEL-2 0.0274 µM | OVCAR-8 0.0778 µM
inactive: CAKI-1 3.06 µM | K562 > 25 µM | OVCAR-4 7.21 µM | NCI/ADR-RES 14.9 µM | UO-31 11.1 µM | ACHN 6.47 µM | MOLT-4 21.3 µM | EKVX 9.2 µM

Cc1cc2c(cc1O)[nH]c1cc3c(cc12)C=CC(C)(C)O3
inactive: DMS-114 10.6 µM | SNB-78 11.3 µM | RPMI-8226 9.1 µM | K562 > 25 µM | OVCAR-5 17.7 µM | OVCAR-4 10.5 µM | TK-10 > 25 µM | SNB-19 > 25 µM | SK-OV-3 > 25 µM | XF498 > 25 µM | OVCAR-3 7.28 µM | COLO 205 > 25 µM | SK-MEL-2 > 25 µM | OVCAR-8 4.55 µM
